Measurements as given in patent US20110059848A1, “GRANULAR TURF SAFE HERBICIDAL COMPOSITIONS” (E. I. DU PONT DE NEMOURS AND COMPANY, priority 2007, published 2011).

How the values were obtained:
weeds = settings: mesotrione applied in a granular composition; cited from earlier work
[1] = system: perennial ryegrass, fine fescue, Kentucky bluegrass, tall fescue, zoysiagrass, St. Augustinegrass, centipedegrass; settings: cited from earlier work
[2] = system: Bermudagrass, Centipedegrass, St. Augustinegrass, Zoysiagrass; assay: Subsequent testing of spray applications on warm-season turfgrasses; format: in vivo; settings: Zoysiagrass and mixtures
Source text: (§1) Accordingly new treatments using aminocyclopyrachlor and its derivatives are needed for successful selective weed control in turf comprising warm-season turfgrasses.

Bermudagrass = settings: postemergence spray application, 31 g ai/ha; cited from earlier work
cool-season turfgrasses = assay: Subsequent testing of spray applications on cool-season turfgrasses; format: in vivo; settings: most cool-season turfgrasses
Source text: as §1

SMILES | weed control, granular composition (weeds) | damage/phytotoxicity to turfgrass varieties, formulations in spray form ([1]; mesotrione applied as a liquid in spray form) | phytotoxicity to turfgrasses, granular composition ([1]; mesotrione applied in a granular composition) | phytotoxicity of spray applications to warm-season turfgrasses [2] | injury to Bermudagrass (Bermudagrass) | safety of spray applications to cool-season turfgrasses (cool-season turfgrasses)
CS(=O)(=O)c1ccc(C(=O)C2C(=O)CCCC2=O)c([N+](=O)[O-])c1 [mesotrione] | good weed control | unacceptable levels of damage/phytotoxicity | reduced to insignificant levels |  |  | 
COC(=O)c1nc(C2CC2)nc(N)c1Cl [Compound 1, methyl 6-amino-5-chloro-2-cyclopropyl-4-pyrimidinecarboxylate] |  |  |  | unacceptable phytotoxicity | 60% | sufficient safety
